Legend:
Suv39H1 and Suv39H2 = settings: cited from earlier work
[1] = test system: patient-derived TMZ-resistant glioblastoma (GBM) cell line; assay: Spheroid cell confluence, co-treatment with TMZ; format: cell-based, human
Method: FIGS. 13A and 13B depict the response of a patient-derived TMZ-resistant glioblastoma (GBM) cell line to TMZ (Temozolomide). The cells were grown in suspension into spheroids after which they were treated with TMZ (100 uM), chaetocin (50 uM) or both (TMZ 100 uM, chaetocin 50 uM were administered at the same time). Cell confluence, an assay for spheroid size, was measured. The top graph depicts the response of the TMZ-resistant cell line to TMZ (100 uM) alone. Bottom graph depicts the response of the TMZ-resistant cell line to single agent and double agent treatments.
FIG. 14 depicts the response of a patient-derived TMZ-resistant glioblastoma (GBM) cell line to TMZ (Temozolomide). The cells were grown in suspension into spheroids after which they were treated with TMZ (50, 100, 200, 400 μM), chaetocin (50 uM) or both (TMZ at 50, 100, 200, or 400 μM together with chaetocin at 50 uM). […] Cell confluence, an assay for spheroid size, was measured.
A short exposure to chaetocin is sufficient to cause an epigenetic change, reprogramming mesenchymal, TIC-rich cancer cells into an epithelial fate while sensitizing them to chemotherapy. […] Cell confluence, an assay for spheroid size, was measured to determine if cell growth was inhibited (flat curve) or spheroid sizes were reduced (indicator of cell death and spheroid shrinkage). […]

[2] = test system: 786-0, A549 and HMLE-TWIST cells; assay: Order of chaetocin and chemotherapy, caspase-3 cleavage; format: cell-based, human
Method: FIGS. 4D-4E show a set of bar plots and schematics of experiments in which chaetocin (80 nM) was administered for 15 hours either alone, two days before (FIG. 4E) or after a 2 day treatment with a chemotherapeutic drug (FIG. 4D; 300 nM cisplatin or 10 nM Doxorubicin) to 786-0 clear cell renal carcinoma cells, A549 lung cancer cells, and HMLE-TWIST (E-Twist) breast cancer cells. Cell death was assayed with cleaved caspase 3 fluorescent intensity. These experiments were designed to test the prediction of an epigenetic model for chaetocin-mediated reversal of chemotherapy resistance, namely that chaetocin must be added transiently for a short duration (15 hours) 2 days prior to chemotherapy to sensitize the cells to treatment. If the order was reversed (FIG. 4D), there should be no effect. The results of FIGS. 4A-4E indicate that chaetocin primes cancer cells for apoptotic death by chemotherapy through epigenetic reversal of chemotherapy resistance.
In a separate set of experiments, to test the generality of chaetocin in reversing the chemotherapy resistance of mesenchymal, TIC-rich cancers, well-characterized mesenchymal TIC-rich cell lines from ccRCC 786-0 and lung cancer cells (A549) were used along with HMLE-TWIST cells described above. […]

[3] = test system: 786-0 and HMLE-Snail (E-Snail) cells versus WT7, HMLE, HK-2, NP-1 and BEAS-2B cells; assay: Proliferation assay on normal and cancer cell lines; format: cell-based, human; settings: 100 nM chaetocin for 1 day
Excerpt: Mesenchymal, TIC-rich, chemotherapy-resistant cell lines used in this experiment are the clear cell renal carcinoma cell line 786-0 and the human mammary epithelial (HMLE) cell line in which the zinc finger protein SNAI1 (SNAIL) is overexpressed, E-SNAIL. The isogenic epithelial, TIC-depleted, chemotherapy sensitive cell lines used as controls are the clear cell renal carcinoma cell line WT7 (modified 786-0 cells) and the human mammary epithelial (HMLE) cell with […].
To test if other mesenchymal, TIC-rich, chemotherapy resistant cell lines of different tissue origin (e.g. kidney) are also sensitive to chaetocin treatment, normal and cancerous breast (control) and renal cells were treated in culture with 100 nM chaetocin for 1 day, after which cell growth was assayed using a proliferation assay (FIG. 1C). The tested cells included a 786-0 clear cell renal cell carcinoma (ccRCC) cell line, which is defective in the Von Hippel-Lindau tumor suppressor (VHL), enriched in TIC, and difficult to eliminate by conventional chemotherapy in patients carrying this mutation. WT7 cell line is a modified 786-0 cell line in which VHL is re-introduced artificially, rendering them epithelial, TIC-depleted and susceptible to chemotherapy. […]

For `CN1C(=O)[C@@]23C[C@]4([C@]56C[C@@]78SS[C@](CO)(C(=O)N7[C@H]5Nc5ccccc56)N(C)C8=O)c5ccccc5N[C@@H]4N2C(=O)[C@@]1(CO)SS3` [chaetocin], the inhibitor specificity (Suv39H1 and Suv39H2) is listed as “specific inhibitor of Suv39H1 and Suv39H2 heterochromatin proteins”, the “sensitization to TMZ (cell confluence / spheroid size)” value ([1]; chaetocin 50 uM with TMZ 100 uM added at the same time) is listed as “sensitization of the TMZ-resistant cell line to TMZ treatment” and the “sensitization to TMZ (cell confluence / spheroid size)” value ([1]; chaetocin 50 uM with TMZ 50, 100, 200, 400 uM added at the same time) is listed as “sensitizes the cells to TMZ treatment versus single treatment with TMZ or chaetocin”. The “sensitization to chemotherapy (caspase-3 cleavage)” value ([2]; 80 nM for 15 hours, 2 days before cisplatin or doxorubicin) was “sensitizes them to chemotherapeutic killing”, the “sensitization to chemotherapy (caspase-3 cleavage)” value ([2]; order reversed: chaetocin after chemotherapy) was “did not produce similar chemotherapeutic killing of cells” and the inhibition of proliferation [3] was “selectively inhibits the growth of mesenchymal, TIC-rich, chemotherapy resistant breast and kidney cancer cell lines”.
